According to BindingDB's records for patent US20250270222 (Satellos Bioscience, 2025):

How the values were obtained:
[1] = target: T1, BMP-2-inducible protein kinase [38-345,K320A,K321A] (Human, UniProt Q9NSY1, K320A/K321A); experiment: BIKE pSENs Assay
T1 construct: 38-345
Procedure: BIKE protein was dissolved at 20 nM in 1× enzyme solution (50 mM HEPES pH7.5, 10 mM MgCl2, 1 mM DTT, 1% glycerol, 0.5 mM EGTA, 0.01% Briji35, 0.02% BSA) and 12.5 ul was incubated with 250 nl DMSO or 250 nl compound in DMSO at 25° C. for 15 min. The reaction was started by addition of 12.5 ul of 30 uM AQT0759 (Assayquant, CSKS-AQT0759B) and 40 uM ATP which were diluted in 1× substrate dilution buffer (50 mM HEPES pH7.5, 10 mM MgCl2. 1 mM DTT, 1% glycerol, 0.5 mM EGTA, 0.01% Briji35).

[2] = target: T2, Cyclin-G-associated kinase [25-335] (Human, UniProt O14976); experiment: GAK pSENs Assay
T2 construct: 25-335
T2 sequence (O14976 whole entry): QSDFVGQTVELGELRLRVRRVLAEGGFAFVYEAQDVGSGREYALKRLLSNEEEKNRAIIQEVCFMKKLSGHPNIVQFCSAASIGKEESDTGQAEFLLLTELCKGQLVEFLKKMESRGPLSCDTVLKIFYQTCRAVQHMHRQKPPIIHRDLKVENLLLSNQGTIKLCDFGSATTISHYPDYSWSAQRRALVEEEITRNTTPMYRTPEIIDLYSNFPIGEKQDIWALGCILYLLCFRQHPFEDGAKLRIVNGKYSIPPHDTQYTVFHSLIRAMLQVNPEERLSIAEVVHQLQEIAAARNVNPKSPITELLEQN
Text: This example describes one illustrative method for determining the IC50 of the compounds of the present invention against GAK (amino acids Q25-N335).

T1 sequence (Q9NSY1 38-345 K320A/K321A): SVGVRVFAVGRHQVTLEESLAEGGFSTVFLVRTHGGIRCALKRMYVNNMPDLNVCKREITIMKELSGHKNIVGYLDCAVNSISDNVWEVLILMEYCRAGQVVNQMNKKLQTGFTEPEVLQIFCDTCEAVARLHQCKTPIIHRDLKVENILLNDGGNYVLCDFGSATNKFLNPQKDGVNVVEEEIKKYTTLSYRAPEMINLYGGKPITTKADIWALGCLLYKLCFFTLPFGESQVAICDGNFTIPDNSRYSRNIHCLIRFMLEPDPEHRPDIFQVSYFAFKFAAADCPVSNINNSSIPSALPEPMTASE

- IC50 [1]: > 1500 nM
- IC50 [2]: > 1500 nM
SMILES: CN(CCN1C[C@@H](OC(=O)N2CCN(c3ccn4ncc(-c5cccnc5OC5CC5)c4n3)CC2)CC1=O)C(=O)OC(C)(C)C [US20250270222, Compound I-35]
